Data reported in patent US8076320B2, “Crystalline forms of a pharmaceutical compound” (Cephalon, Inc., priority 2004, dated 2011).
One block for each compound: values may come before it.

Legend:
Type in all cases: physicochemical
[1] = Suspension of excess solid Compound I in solvent on a rotarmix, solid form determined by powder X-ray diffraction; conditions: 4 days, room temperature; for solid form after storage as suspension in acetonitrile (ACN): excess solid in ACN; for solid form after storage as suspension in methanol: excess solid in methanol
[2] = Light exposure of the solid compound in a Heraeus Suntest CPS+; conditions: solid compound exposed to light for 14 h at 650W
Procedure: Experiments were carried out in a Heraeus Suntest CPS+ for the crystalline forms alpha, beta and gamma where the solid compound was exposed to light for 14 h at 650W.

[3] = Suspension of excess solid Compound I in solvent on a rotarmix, solid form determined by powder X-ray diffraction
Procedure: In the following examples are used excess of solid Compound I, i.e. compared to the solvent the amounts of solid Compound I is such that not all the solid material comes into solution. The amounts used varied between 25-50 mg solid Compound I and 2-5 ml solvent. In the present context by “solid Compound I” is meant amorphous Compound I or any of the crystalline forms of Compound I as indicated below. • (i) Excess of amorphous Compound I was added to methanol and the resulting suspension was stored on a rotarmix for 4 days at room temperature. […] After filtration the supernatant was left for evaporation of the solvent. […] Conclusion: […]

[4] = listed as crystalline gamma form of Compound I
[5] = listed as crystalline beta form of Compound I
[6] = listed as crystalline alpha form of Compound I

Compound: CCSCc1ccc2c(c1)c1c3c(c4c5cc(CSCC)ccc5n5c4c1n2[C@H]1C[C@](O)(C(=O)OC)[C@]5(C)O1)CNC3=O [gamma]
solid form after storage as suspension in acetonitrile (ACN) [1, 4]: still the gamma form
solid form after storage as suspension in methanol [1, 4]: still the gamma form

Compound: CCSCc1ccc2c(c1)c1c3c(c4c5cc(CSCC)ccc5n5c4c1n2[C@H]1C[C@](O)(C(=O)OC)[C@]5(C)O1)CNC3=O [amorphous substance]
solid form after storage as suspension in acetonitrile (ACN) ([1]; listed as amorphous Compound I): the gamma form
solid form after storage as suspension in methanol ([1]; listed as amorphous Compound I): the alpha form
degradation after light treatment [2]: ~60%

Second part, led by results:

solid form after storage as suspension in acetonitrile (ACN) [1, 5]: the gamma form
solid form after storage as suspension in methanol [1, 5]: the alpha form
Compound: CCSCc1ccc2c(c1)c1c3c(c4c5cc(CSCC)ccc5n5c4c1n2[C@H]1C[C@](O)(C(=O)OC)[C@]5(C)O1)CNC3=O [beta]

solid form obtained on evaporation of the filtered supernatant ([3]; methanol suspension after 4 days, filtration, supernatant left for evaporation of the solvent): the alpha form
Compound: CCSCc1ccc2c(c1)c1c3c(c4c5cc(CSCC)ccc5n5c4c1n2[C@H]1C[C@](O)(C(=O)OC)[C@]5(C)O1)CNC3=O
solid form after storage as suspension in methanol ([3]; excess solid in methanol, rotarmix, 4 days, room temperature, powder X-ray diffraction): the major part of the solid was the gamma form

solid form after storage as suspension in acetonitrile (ACN) [1, 6]: the gamma form
solid form after storage as suspension in methanol [1, 6]: still the alpha form
Compound: CCSCc1ccc2c(c1)c1c3c(c4c5cc(CSCC)ccc5n5c4c1n2[C@H]1C[C@](O)(C(=O)OC)[C@]5(C)O1)CNC3=O [alpha]
